Test system: Henosepilachna vigintioctopunctata
Test: Antifeedant activity against fourth-instar larvae of Henosepilachna vigintioctopunctata on Solanum nigrum leaves at 1 % relative to control
Format: functional

| SMILES | AFI [%] |
| --- | --- |
| C=C1CC[C@H]2C(C)(C)C(=O)CC[C@]2(C)[C@H]1CC[C@H]1C(C)=CC[C@H]2C(C)(C)C(=O)CC[C@]12C | 56 |
| CC1=CC[C@H]2C(C)(C)C(=O)CC[C@]2(C)[C@H]1CC[C@H]1C(C)=CC[C@H]2C(C)(C)C(=O)CC[C@]12C | 85 |
| COC(=O)[C@@H]1O[C@]23O[C@H]4CC[C@]5(C)C(=CC(=O)O[C@H]5c5ccoc5)[C@H]4C[C@]2(O)C(=O)C(C)(C)[C@H]1[C@@H]3C [KOKOSANOLIDE A] | 78 |
| COC(=O)[C@@H]1O[C@]23O[C@H]4CC[C@]5(C)C(=CC(=O)O[C@H]5c5ccoc5)[C@H]4C[C@]2(O)CC(C)(C)[C@H]1[C@@H]3C [KOKOSANOLIDE C] | 0 |
| CC1=CC[C@H]2C(C)(C)C(=O)CC[C@]2(C)[C@H]1CC[C@H]1C(C)(O)CC[C@H]2C(C)(C)C(=O)CC[C@]12C (stereo not given in full) [Kokosanolide B] | 99 |

From ChEMBL document CHEMBL3045295, “Antifeedant triterpenoids from the seeds and bark of Lansium domesticum cv Kokossan (Meliaceae)” (2011)
